Test results taken from patent US8071625B2, “Certain chemical entities, compositions, and methods” (Cytokinetics, Inc., priority 2006, dated 2011).

Target: T1, crosslinked smooth muscle actomyosin (chicken gizzard smooth muscle myosin subfragment-1 crosslinked to cardiac or skeletal actin) (Gallus gallus, UniProt P10587)
T1 construct: chicken gizzard smooth muscle myosin subfragment-1; from tissue; host or cells: chicken gizzard
Experiment: Lead optimization pyruvate kinase/horseradish peroxidase/pyruvate oxidase-coupled ATPase assay (compound dose response)
Type: biochemical
Conditions: read-out: IC50 Arithmetic Mean
Method: Screening assays were performed using a pyruvate kinase and lactate dehydrogenase-coupled ATPase assay containing the following reagents: Potassium PIPES (50 mM), MgCl2 (3 mM), KCl (100 mM), ATP (0.15 mM), DTT (1 mM), BSA (0.1 mg/ml), NADH (0.5 mM), PEP (1.5 mM), pyruvate kinase (4 U/ml), lactate dehydrogenase (8 U/ml), and antifoam (50 ppm) (concentrations expressed are final assay concentrations). The pH was adjusted to 6.80 at 22° C. by addition of potassium hydroxide. Lead optimization assays were performed with a more sensitive pyruvate kinase/horseradish peroxidase/pyruvate oxidase-coupled ATPase assay containing the following reagents: Potassium PIPES (12 mM), MgCl2 (2 mM), KCl (100 mM), ATP (0.15 mM), BSA (0.05 mg/ml), potassium phosphate (2 mM), amplex red (0.1 mM), PEP (0.1 mM), pyruvate kinase (4 U/ml), horseradish peroxidase (0.5 U/ml), pyruvate oxidase (0.5 U/ml), and antifoam (50 ppm) (concentrations expressed are final assay concentrations). The pH was adjusted to 7.00 at 22° C. by addition of potassium hydroxide.
The protein components specific to this assay are chicken gizzard smooth muscle myosin subfragment-1 that has been chemically crosslinked to either cardiac or skeletal actin using an excess of 1-Ethyl-3-[3-dimethylaminopropyl]carbodiimide hydrochloride and N-hydroxysuccinimide. The exact concentration of the crosslinked smooth muscle myosin in the assay is determined empirically, by titration to achieve a desired rate of ATP hydrolysis. The concentration varies between protein preparations due to variations in the fraction of active molecules in each preparation.
Compound dose response assays are performed by first preparing a dilution series of test compound, each with an assay mixture containing potassium PIPES, MgCl2, KCl, ATP, BSA, potassium phosphate, amplex red, PEP, crosslinked smooth muscle actomyosin (subfragment-1), antifoam, and water. The assay is started by adding an equal volume of solution containing potassium Pipes, MgCl2, KCl, BSA, potassium phosphate, pyruvate kinase, horseradish peroxidase, pyruvate oxidase, antifoam, and water. ATP hydrolysis is monitored by measuring the fluorescence of amplex red (excitation at 480 nm, emission at 615 nm). The resulting dose response curve is fit by the 4 parameter equation y=Bottom+((Top-Bottom)/(1+((IC50/X)^Hill))). The IC50 is defined as the concentration at which ATPase activity is midway between the top and bottom of the dose response curve.

IC50 [nM] | Compound
143 | CCc1ccc(NC(=O)OCC2(C(=O)NCc3ccccc3Cl)CCN(C(=O)C(N)CO)CC2)cc1 (stereo not shown) [(1-(2-amino-3-hydroxypropanoyl)-4-{[N-(4-ethylphenyl)carbamoyloxy]methyl}(4-piperidyl))-N-[(2-chlorophenyl)methyl]carboxamide]
540 | CCc1ccc(NC(=O)OCC2(C(=O)NCc3ccccc3Cl)CCN(C(=O)C(N)C(C)C)CC2)cc1 (stereo not shown) [(1-(2-amino-3-methylbutanoyl)-4-{[N-(4-ethylphenyl)carbamoyloxy]methyl}(4-piperidyl))-N-[(2-chlorophenyl)methyl]carboxamide]
474 | CCc1ccc(NC(=O)OCC2(C(=O)NCc3ccccc3Cl)CCCN(C(=O)CN)C2)cc1 (stereo not shown) [(1-(2-aminoacetyl)-3-{[N-(4-ethylphenyl)carbamoyloxy]methyl}(3-piperidyl))-N-[(2-chlorophenyl)methyl]carboxamide]
526 | CCc1ccc(NC(=O)OCC2(C(=O)NCc3ccccc3Cl)CCN(C(=O)CN)C2)cc1 (stereo not shown) [(1-(2-aminoacetyl)-3-{[N-(4-ethylphenyl)carbamoyloxy]methyl}pyrrolidin-3-yl)-N-[(2-chlorophenyl)methyl]carboxamide]
2440 | CCc1ccc(NC(=O)OCCC2(C(=O)NCc3ccccc3Cl)CCN(C(=O)CN)CC2)cc1 [(1-(2-aminoacetyl)-4-{2-[N-(4-ethylphenyl)carbamoyloxy]ethyl}(4-piperidyl))-N-[(2-chlorophenyl)methyl]carboxamide]
281 | Cc1ccc(NC(=O)OCC2(C(=O)NCc3ccccc3Cl)CCN(C(=O)CN)CC2)c(Cl)c1 [(1-(2-aminoacetyl)-4-{[N-(2-chloro-4-methylphenyl)carbamoyloxy]methyl}(4-piperidyl))-N-[(2-chlorophenyl)methyl]carboxamide]
742 | Cc1ccc(NC(=O)OCC2(C(=O)NCc3ccccc3Cl)CCN(C(=O)CN)CC2)cc1F [(1-(2-aminoacetyl)-4-{[N-(3-fluoro-4-methylphenyl)carbamoyloxy]methyl}(4-piperidyl))-N-[(2-chlorophenyl)methyl]carboxamide]
569 | NCC(=O)N1CCC(COC(=O)Nc2ccc(Cl)cc2)(C(=O)NCc2ccccc2Cl)CC1 [(1-(2-aminoacetyl)-4-{[N-(4-chlorophenyl)carbamoyloxy]methyl}(4-piperidyl))-N-[(2-chlorophenyl)methyl]carboxamide]
7780 | N#Cc1ccc(NC(=O)OCC2(C(=O)NCc3ccccc3Cl)CCN(C(=O)CN)CC2)cc1 [(1-(2-aminoacetyl)-4-{[N-(4-cyanophenyl)carbamoyloxy]methyl}(4-piperidyl))-N-[(2-chlorophenyl)methyl]carboxamide]
175 | CCc1ccc(NC(=O)OCC2(C(=O)NCc3ccccc3Cl)CCN(C(=O)CN)CC2)cc1 [(1-(2-aminoacetyl)-4-{[N-(4-ethylphenyl)carbamoyloxy]methyl}(4-piperidyl))-N-[(2-chlorophenyl)methyl]carboxamide]
904 | CCc1ccc(NC(=O)OCC2(C(=O)NCc3ccccc3C#N)CCN(C(=O)CN)CC2)cc1 [(1-(2-aminoacetyl)-4-{[N-(4-ethylphenyl)carbamoyloxy]methyl}(4-piperidyl))-N-[(2-cyanophenyl)methyl]carboxamide]
307 | CCc1ccc(NC(=O)OCC2(C(=O)NCc3ccccc3F)CCN(C(=O)CN)CC2)cc1 [(1-(2-aminoacetyl)-4-{[N-(4-ethylphenyl)carbamoyloxy]methyl}(4-piperidyl))-N-[(2-fluorophenyl)methyl]carboxamide]
2160 | CCc1ccc(NC(=O)OCC2(C(=O)NCc3ccccc3OC)CCN(C(=O)CN)CC2)cc1 [(1-(2-aminoacetyl)-4-{[N-(4-ethylphenyl)carbamoyloxy]methyl}(4-piperidyl))-N-[(2-methoxyphenyl)methyl]carboxamide]
167 | CCc1ccc(NC(=O)OCC2(C(=O)NCc3ccccc3C)CCN(C(=O)CN)CC2)cc1 [(1-(2-aminoacetyl)-4-{[N-(4-ethylphenyl)carbamoyloxy]methyl}(4-piperidyl))-N-[(2-methylphenyl)methyl]carboxamide]
8110 | CCc1ccc(NC(=O)OCC2(C(=O)NCc3ccccc3)CCN(C(=O)CN)CC2)cc1 [(1-(2-aminoacetyl)-4-{[N-(4-ethylphenyl)carbamoyloxy]methyl}(4-piperidyl))-N-benzylcarboxamide]
949 | CCc1ccc(NC(=O)OCC2(C(=O)NCc3ccccc3CO)CCN(C(=O)CN)CC2)cc1 [(1-(2-aminoacetyl)-4-{[N-(4-ethylphenyl)carbamoyloxy]methyl}(4-piperidyl))-N-{[2-(hydroxymethyl)phenyl]methyl}carboxamide]
14600 | NCC(=O)N1CCC(COC(=O)Nc2ccc(F)cc2)(C(=O)NCc2ccccc2Cl)CC1 [(1-(2-aminoacetyl)-4-{[N-(4-fluorophenyl)carbamoyloxy]methyl}(4-piperidyl))-N-[(2-chlorophenyl)methyl]carboxamide]
191 | Cc1ccc(NC(=O)OCC2(C(=O)NCc3ccccc3Cl)CCN(C(=O)CN)CC2)cc1 [(1-(2-aminoacetyl)-4-{[N-(4-methylphenyl)carbamoyloxy]methyl}(4-piperidyl))-N-[(2-chlorophenyl)methyl]carboxamide]
277 | NCC(=O)N1CCC(COC(=O)Nc2ccc(-c3ccccc3)cc2)(C(=O)NCc2ccccc2Cl)CC1 [(1-(2-aminoacetyl)-4-{[N-(4-phenylphenyl)carbamoyloxy]methyl}(4-piperidyl))-N-[(2-chlorophenyl)methyl]carboxamide]
1160 | CCc1ccc(NC(=O)OCC2(C(=O)NCc3ccccc3Cl)CCN(CCN)CC2)cc1 [(1-(2-aminoethyl)-4-{[N-(4-ethylphenyl)carbamoyloxy]methyl}(4-piperidyl))-N-[(2-chlorophenyl)methyl]carboxamide]
120 | CCc1ccc(NC(=O)OCC2(C(=O)NCc3ccccc3Cl)CCN(C(=O)C(O)CN)CC2)cc1 (stereo not shown) [(1-(3-amino-2-hydroxypropanoyl)-4-{[N-(4-ethylphenyl)carbamoyloxy]methyl}(4-piperidyl))-N-[(2-chlorophenyl)methyl]carboxamide]
187 | CCc1ccc(NC(=O)OCC2(C(=O)NCc3ccccc3Cl)CCN(C(=O)C(O)CCN)CC2)cc1 (stereo not shown) [(1-(4-amino-2-hydroxybutanoyl)-4-{[N-(4-ethylphenyl)carbamoyloxy]methyl}(4-piperidyl))-N-[(2-chlorophenyl)methyl]carboxamide]
246 | CCc1ccc(NC(=O)OCC2(C(=O)NCc3ccccc3Cl)CCN(C(=O)CCCN)CC2)cc1 [(1-(4-aminobutanoyl)-4-{[N-(4-ethylphenyl)carbamoyloxy]methyl}(4-piperidyl))-N-[(2-chlorophenyl)methyl]carboxamide]
164 | CCc1ccc(NC(=O)OCC2(C(=O)NCc3ccccc3Cl)CCN(C(=O)[C@H](N)CO)CC2)cc1 [(1-((2R)-2-amino-3-hydroxypropanoyl)-4-{[N-(4-ethylphenyl)carbamoyloxy]methyl}(4-piperidyl))-N-[(2-chlorophenyl)methyl]carboxamide]
255 | CCc1ccc(NC(=O)OCC2(C(=O)NCc3ccccc3Cl)CCN(C(=O)[C@@H](C)N)CC2)cc1 [(1-((2R)-2-aminopropanoyl)-4-{[N-(4-ethylphenyl)carbamoyloxy]methyl}(4-piperidyl))-N-[(2-chlorophenyl)methyl]carboxamide]
